The compounds below were run against T1, CDK8/CycC (Homo sapiens, UniProt P49336) (assay: FRET based Lanthascreen binding competition assay for CDK8 inhibitory activity). Conditions: CDK8 co-expressed with CycC; class symbols; read-out: IC50.
T1 construct: purchased Invitrogen PV4402
Source text: Biochemical Assay for CDK8 Inhibitory Activity FRET based Lanthascreen binding competition assay: A dye-labeled ATP competitive probe served as a FRET acceptor upon binding to CDK8 labeled with a strepavidin -Eu-chelate (via a biotinylated anti His antibody). The result was a fluorescence signal at 647 nm. In case this probe was competed by an inhibitor, such a signal cannot be generated any more. The CDK8 used for this assay was a protein co-expressed with CycC. The assay procedure for an assay in a 1536 well plate was performed according to the following: 2 μL CDK8/biotin-anti-His Ab/SA-Eu mix in Assay buffer were pipetted into the wells of a micro plate. 1 μL compound in 20 mM Hepes buffer/5% DMSO was added. The plate was shaken for 30 sec and incubated for 20 min at RT. 2 μL Alexa647-probe in assay buffer were added. The plate was shaken for 30 sec again and incubated for 60 min at RT in the dark. Then the plate was read out on a Perkin Elmer Envision (mode LANCE/TRF, excitation 340 nm emission 650 nm). […] The readouts were fitted to IC50 curves using Genedata Condoseo.

T1 sequence (P49336 whole entry): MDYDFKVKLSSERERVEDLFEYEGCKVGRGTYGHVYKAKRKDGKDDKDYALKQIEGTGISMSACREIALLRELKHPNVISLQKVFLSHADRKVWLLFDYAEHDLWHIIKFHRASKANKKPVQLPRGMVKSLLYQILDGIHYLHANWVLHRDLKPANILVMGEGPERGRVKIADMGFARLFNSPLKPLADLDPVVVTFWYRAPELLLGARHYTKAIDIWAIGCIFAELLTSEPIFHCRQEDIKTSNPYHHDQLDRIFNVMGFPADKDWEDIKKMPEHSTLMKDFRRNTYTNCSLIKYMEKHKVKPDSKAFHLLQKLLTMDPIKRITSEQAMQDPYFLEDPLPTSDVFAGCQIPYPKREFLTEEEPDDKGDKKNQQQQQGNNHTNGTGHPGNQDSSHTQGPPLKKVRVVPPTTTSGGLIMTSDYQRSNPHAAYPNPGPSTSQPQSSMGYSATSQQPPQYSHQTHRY
T1 sequence (P24863 whole entry partner): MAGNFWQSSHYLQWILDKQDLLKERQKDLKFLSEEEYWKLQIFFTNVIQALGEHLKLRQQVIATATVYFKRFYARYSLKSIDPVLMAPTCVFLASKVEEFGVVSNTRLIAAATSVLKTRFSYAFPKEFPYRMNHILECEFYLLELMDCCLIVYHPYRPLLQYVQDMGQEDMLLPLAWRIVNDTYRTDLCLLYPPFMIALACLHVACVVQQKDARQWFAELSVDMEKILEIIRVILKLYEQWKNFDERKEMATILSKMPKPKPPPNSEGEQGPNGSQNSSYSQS

SMILES	IC50 [µM]
Cc1n[nH]c2ccc(C(=O)N3CCC[C@@H]3c3ccc(Br)cc3)cc12 [compound 50, [(R)-2-(4-Bromo-phenyl)-pyrrolidin-1-yl]-(3-methyl-1H-indazol-5-yl)-methanone]	0.1 to 1
Cc1n[nH]c2ccc(C(=O)N3CCC[C@@H]3c3ccc(Br)cc3)nc12 [compound 53, [(R)-2-(4-Bromo-phenyl)-pyrrolidin-1-yl]-(3-methyl-1H-pyrazolo[4,3-b]pyridin-5-yl)-methanone]	0.1 to 1
Cc1n[nH]c2ccc(C(=O)N3CCC[C@H]3c3ccc(Br)cc3)nc12 [compound 54, [(S)-2-(4-Bromo-phenyl)-pyrrolidin-1-yl]-(3-methyl-1H-pyrazolo[4,3-b]pyridin-5-yl)-methanone]	< 0.01
Cc1n[nH]c2ncc(C(=O)N3CCC3c3ccc(Cl)cc3)cc12 (stereo not shown) [compound 55, [2-(4-Chloro-phenyl)-azetidin-1-yl]-(3-methyl-1H-pyrazolo[3,4-b]pyridin-5-yl)-methanone]	0.01 to 0.1
Cc1n[nH]c2ncc(C(=O)N3CC[C@H]3c3ccc(F)cc3)cc12 [compound 56, [(S)-2-(4-Fluoro-phenyl)-azetidin-1-yl]-(3-methyl-1H-pyrazolo[3,4-b]pyridin-5-yl)-methanone]	0.01 to 0.1
Cc1n[nH]c2ncc(C(=O)N3CCCCCC3c3ccc(Cl)cc3)cc12 (stereo not shown) [compound 57, [2-(4-Chloro-phenyl)-azepan-1-yl]-(3-methyl-1H-pyrazolo[3,4-b]pyridin-5-yl)-methanone]	0.1 to 1
Cc1n[nH]c2ncc(C(=O)N3CCCCCC3c3cccc(F)c3)cc12 (stereo not shown) [compound 58, [2-(3-Fluoro-phenyl)-azepan-1-yl]-(3-methyl-1H-pyrazolo[3,4-b]pyridin-5-yl)-methanone]	0.01 to 0.1
Cc1n[nH]c2ncc(C(=O)N3CCCCC(c4ccc(Cl)cc4)C3)cc12 (stereo not shown) [compound 59, [3-(4-Chloro-phenyl)-azepan-1-yl]-(3-methyl-1H-pyrazolo[3,4-b]pyridin-5-yl)-methanone]	0.01 to 0.1
Cc1ccc(C2CCCN2C(=O)c2cnc3[nH]nc(C)c3c2)cc1 (stereo not shown) [compound 62, (3-Methyl-1H-pyrazolo[3,4-b]pyridin-5-yl)-(2-p-tolyl-pyrrolidin-1-yl)-methanone]	< 0.01
Cc1n[nH]c2ncc(C(=O)N3CCCC3c3ccc(C(F)(F)F)cc3)cc12 (stereo not shown) [compound 63, (3-Methyl-1H-pyrazolo[3,4-b]pyridin-5-yl)-[2-(4-trifluoromethyl-phenyl)-pyrrolidin-1-yl]-methanone]	< 0.01
Cc1n[nH]c2ncc(C(=O)N3CCCC3c3ccccc3OCC(F)(F)F)cc12 (stereo not shown) [compound 65, (3-Methyl-1H-pyrazolo[3,4-b]pyridin-5-yl)-{2-[2-(2,2,2-trifluoro-ethoxy)-phenyl]-pyrrolidin-1-yl}-methanone]	0.1 to 1
Cc1n[nH]c2ncc(C(=O)N3CCCC(c4ccccc4)C3)cc12 (stereo not shown) [compound 66, (3-Methyl-1H-pyrazolo[3,4-b]pyridin-5-yl)-(3-phenyl-piperidin-1-yl)-methanone]	0.1 to 1
Cc1n[nH]c2ncc(C(=O)N3CCCC(c4ccc(Cl)cc4)C3)cc12 (stereo not shown) [compound 67, [3-(4-Chloro-phenyl)-piperidin-1-yl]-(3-methyl-1H-pyrazolo[3,4-b]pyridin-5-yl)-methanone]	0.01 to 0.1
Cc1n[nH]c2ncc(C(=O)N3CCC(c4ccc(Cl)cc4)C3)cc12 (stereo not shown) [compound 68, [3-(4-Chloro-phenyl)-pyrrolidin-1-yl]-(3-methyl-1H-pyrazolo[3,4-b]pyridin-5-yl)-methanone]	< 0.01
Cc1n[nH]c2ncc(C(=O)N3CCCC3c3ccc(Cl)c(F)c3)cc12 (stereo not shown) [compound 69, [2-(4-Chloro-3-fluoro-phenyl)-pyrrolidin-1-yl]-(3-methyl-1H-pyrazolo[3,4-b]pyridin-5-yl)-methanone]	0.01 to 0.1
O=C(c1cnc2[nH]nc(C3CC3)c2c1)N1CCCC1c1ccc(Cl)cc1 (stereo not shown) [compound 70, [2-(4-Chloro-phenyl)-pyrrolidin-1-yl]-(3-cyclopropyl-1H-pyrazolo[3,4-b]pyridin-5-yl)-methanone]	0.01 to 0.1

SMILES	IC50 [µM]
O=C(c1cnc2[nH]nc(C(F)(F)F)c2c1)N1CCCC1c1ccc(Cl)cc1 (stereo not shown) [compound 71, [2-(4-Chloro-phenyl)-pyrrolidin-1-yl]-(3-trifluoromethyl-1H-pyrazolo[3,4-b]pyridin-5-yl)-methanone]	0.01 to 0.1
Nc1n[nH]c2ccc(C(=O)N3CCCCC3Cc3ccccc3)cc12 (stereo not shown) [compound 81, (3-Amino-1H-indazol-5-yl)-(2-benzyl-piperidin-1-yl)-methanone]	0.1 to 1
Nc1n[nH]c2ccc(C(=O)N3CCCCC3c3ccccc3)cc12 (stereo not shown) [compound 82, (3-Amino-1H-indazol-5-yl)-(2-phenyl-piperidin-1-yl)-methanone]	0.01 to 0.1
Nc1n[nH]c2ccc(C(=O)N3CCCC3c3ccccc3)cc12 (stereo not shown) [compound 83, (3-Amino-1H-indazol-5-yl)-(2-phenyl-pyrrolidin-1-yl)-methanone]	0.01 to 0.1
Nc1n[nH]c2ccc(C(=O)N3CCC(c4ccccc4)C3)cc12 (stereo not shown) [compound 84, (3-Amino-1H-indazol-5-yl)-(3-phenyl-pyrrolidin-1-yl)-methanone]	0.1 to 1
Nc1n[nH]c2ccc(C(=O)N3CC[C@H](c4ccccc4)C3)cc12 [compound 87, (3-Amino-1H-indazol-5-yl)-((R)-3-phenyl-pyrrolidin-1-yl)-methanone]	0.1 to 1
Nc1n[nH]c2ccc(C(=O)N3CC[C@@H](c4ccccc4)C3)cc12 [compound 88, (3-Amino-1H-indazol-5-yl)-((S)-3-phenyl-pyrrolidin-1-yl)-methanone]	0.1 to 1
Nc1n[nH]c2ccc(C(=O)N3CCC[C@@H]3c3ccccc3)cc12 [compound 91]	0.01 to 0.1
Nc1n[nH]c2ncc(C(=O)N3CCC[C@H]3c3ccc(Cl)cc3)cc12 [compound 96, (3-Amino-1H-pyrazolo[3,4-b]pyridin-5-yl)-[(S)-2-(4-chloro-phenyl)-pyrrolidin-1-yl]-methanone]	0.01 to 0.1
Nc1n[nH]c2ncc(C(=O)N3CCC[C@H]3c3ccc(Br)cc3)cc12 [compound 98, (3-Amino-1H-pyrazolo[3,4-b]pyridin-5-yl)-[(S)-2-(4-bromo-phenyl)-pyrrolidin-1-yl]-methanone]	0.01 to 0.1
Nc1n[nH]c2ccc(C(=O)N3CCC3c3ccc(Cl)cc3)cc12 (stereo not shown) [compound 104, (3-Amino-1H-indazol-5-yl)-[2-(4-chloro-phenyl)-azetidin-1-yl]-methanone]	0.01 to 0.1
Nc1n[nH]c2ccc(C(=O)N3CCCCCC3c3ccc(Cl)cc3)cc12 (stereo not shown) [compound 106, (3-Amino-1H-indazol-5-yl)-[2-(4-chloro-phenyl)-azepan-1-yl]-methanone]	0.1 to 1
Nc1n[nH]c2ccc(C(=O)N3CCCCCC3c3cccc(F)c3)cc12 (stereo not shown) [compound 107, (3-Amino-1H-indazol-5-yl)-[2-(3-fluoro-phenyl)-azepan-1-yl]-methanone]	0.1 to 1
Nc1n[nH]c2ccc(C(=O)N3CCCC3c3ccc(C(F)(F)F)cc3)cc12 (stereo not shown) [compound 112, (3-Amino-1H-indazol-5-yl)-[2-(4-trifluoromethyl-phenyl)-pyrrolidin-1-yl]-methanone]	0.01 to 0.1
CCOc1ccccc1C1CCCN1C(=O)c1ccc2[nH]nc(N)c2c1 (stereo not shown) [compound 113, (3-Amino-1H-indazol-5-yl)-[2-(2-ethoxy-phenyl)-pyrrolidin-1-yl]-methanone]	0.1 to 1

Same assay, conditions: IC50 [μM], CDK8 co-expressed with CycC; class symbols

SMILES	IC50 [µM]
Cc1n[nH]c2ccc(C(=O)N3CCC[C@H]3c3ccc(Cl)cc3)nc12 [compound 52, [(S)-2-(4-Chloro-phenyl)-pyrrolidin-1-yl]-(3-methyl-1H-pyrazolo[4,3-b]pyridin-5-yl)-methanone]	< 0.01
Nc1n[nH]c2ccc(C(=O)N3CCCC3c3ccc(Br)cc3)cc12 (stereo not shown) [compound 74, (3-Amino-1H-indazol-5-yl)-[2-(4-bromo-phenyl)-pyrrolidin-1-yl]-methanone]	< 0.01
Nc1n[nH]c2ccc(C(=O)N3CCC[C@H]3c3ccc(Br)cc3)cc12 [compound 76, (3-Amino-1H-indazol-5-yl)-[(S)-2-(4-bromo-phenyl)-pyrrolidin-1-yl]-methanone]	< 0.01
Nc1n[nH]c2ccc(C(=O)N3CCC[C@@H]3c3ccc(Br)cc3)cc12 [compound 77, (3-Amino-1H-indazol-5-yl)-[(R)-2-(4-bromo-phenyl)-pyrrolidin-1-yl]-methanone]	0.1 to 1
Nc1n[nH]c2ccc(C(=O)N3CCC[C@H]3c3ccc(Cl)cc3)cc12 [compound 79, (3-Amino-1H-indazol-5-yl)-[(S)-2-(4-chloro-phenyl)-pyrrolidin-1-yl]-methanone]	< 0.01
Nc1n[nH]c2ccc(C(=O)N3CCC[C@@H]3c3ccc(Cl)cc3)cc12 [compound 80, (3-amino-1H-indazol-5-yl)-[(R)-2-(4-chloro-phenyl)-pyrrolidin-1-yl]-methanone]	0.1 to 1
Nc1n[nH]c2ccc(C(=O)N3CCCC3c3ccc(F)cc3)cc12 (stereo not shown) [compound 85, (3-Amino-1H-indazol-5-yl)-[2-(4-fluoro-phenyl)-pyrrolidin-1-yl]-methanone]	< 0.01
Nc1n[nH]c2ccc(C(=O)N3CCCC[C@H]3c3ccc(F)cc3)cc12 [compound 92, (3-Amino-1H-indazol-5-yl)-[(S)-2-(4-fluoro-phenyl)-piperidin-1-yl]-methanone]	0.01 to 0.1
Nc1n[nH]c2ccc(C(=O)N3CCC3c3ccc(F)cc3)cc12 (stereo not shown) [compound 105, (3-Amino-1H-indazol-5-yl)-[2-(4-fluoro-phenyl)-azetidin-1-yl]-methanone]	0.01 to 0.1

From patent publication US9862717B2 (Merck Patent GmbH, priority 2014, dated 2018)
